From ChEMBL document CHEMBL3045084, “Synthesis, antitubercular activity, and QSAR analysis of substituted nitroaryl analogs: chalcone, pyrazole, isoxazole, and pyrimidines” (2013) come the findings set out here.

Converted amounts (≈) assume the structure as drawn. Where only a bound is given, the exact number is not on record here.

The MIC is the lowest concentration found to suppress growth.

For the assay, the system named is Mycobacterium tuberculosis. The experiment in a line: Antitubercular activity against Mycobacterium tuberculosis H37Rv ATCC 27294 assessed as growth inhibition after 28 days by agar dilution method. The following applies: for MIC: Mycobacterium tuberculosis, H37Rv ATCC 27294, 672 h. The class given is functional. Background: Agar dilution tests growth on a series of plates holding different concentrations.

`COc1ccc(OC)c(C2CC(c3ccc([N+](=O)[O-])cc3)=NC(=O)N2)c1` (stereo not drawn): the MIC is over 282 µM.
On to `O=[N+]([O-])c1ccc(C2=NOC(c3ccc(Cl)cc3)C2)cc1` (stereo not drawn), for which the “-logMIC” value is recorded as 4.08 and the MIC was found to be 83.3 µM (≈ 25.2 µg/mL).
With `O=[N+]([O-])c1ccc(C2=NNC(c3ccc(F)cc3)C2)cc1` (stereo not drawn), the “-logMIC” value amounted to 4.355 and the minimal inhibitory concentration (MIC) stood at 44.2 µM (≈ 12.6 µg/mL).
Turning to `O=C(/C=C/c1ccc(Br)cc1)c1ccc([N+](=O)[O-])cc1`, the “-logMIC” value stood at 5.026 and the minimum inhibitory concentration (MIC) worked out at 9.43 µM (≈ 3.13 µg/mL).
`CN(C)c1ccc(C2CC(c3ccc([N+](=O)[O-])cc3)=NC(=O)N2)cc1` (stereo not drawn): the “-logMIC” value was 3.527 and the MIC turned out to be 296 µM (≈ 100 µg/mL).
In the case of `O=[N+]([O-])c1ccc(C2=NNC(c3ccc(Cl)cc3)C2)cc1` (stereo not drawn), the “-logMIC” value is reported as 4.079 and the MIC was found to be 83.6 µM (≈ 25.2 µg/mL).
Take `COc1cc(C2CC(c3ccc([N+](=O)[O-])cc3)=NC(=O)N2)cc(OC)c1OC` (stereo not drawn): the “-logMIC” value was 3.585 and the MIC worked out at 260 µM (≈ 100 µg/mL).
For `COc1cccc(C2CC(c3ccc([N+](=O)[O-])cc3)=NC(=O)N2)c1` (stereo not drawn), the “-logMIC” value was determined as 3.51 and the MIC came out at 308 µM (≈ 100 µg/mL).
Turning to `COc1ccc(C2CC(c3ccc([N+](=O)[O-])cc3)=NN2)cc1` (stereo not drawn), the minimal inhibitory concentration (MIC) was over 339 µM.
For `COc1ccc(OC)c(C2CC(c3ccc([N+](=O)[O-])cc3)=NC(=S)N2)c1` (stereo not drawn), the “-logMIC” value came to 3.869 and the MIC turned out to be 135 µM (≈ 50.1 µg/mL).
Regarding `O=[N+]([O-])c1ccc(C2=NNC(c3ccc(Br)cc3)C2)cc1` (stereo not drawn), the “-logMIC” value is listed as 4.139 and the MIC stood at 72.7 µM (≈ 25.2 µg/mL).
As to `CN(C)c1ccc(C2CC(c3ccc([N+](=O)[O-])cc3)=NC(=S)N2)cc1` (stereo not drawn), the “-logMIC” value came to 3.848 and the MIC stood at 141 µM (≈ 50.1 µg/mL).
As for `COc1cccc(/C=C/C(=O)c2ccc([N+](=O)[O-])cc2)c1`, the “-logMIC” value is 4.054 and the MIC stood at 88.3 µM (≈ 25 µg/mL).
For the compound `O=C1N=C(c2ccc([N+](=O)[O-])cc2)CC(c2ccc(F)cc2)N1` (stereo not drawn), the “-logMIC” value was found to be 4.697 and the MIC was determined as 20 µM (≈ 6.26 µg/mL).
As for `O=C1N=C(c2ccc([N+](=O)[O-])cc2)CC(c2ccc(Cl)cc2Cl)N1` (stereo not drawn), the “-logMIC” value came to 4.462 and the MIC was determined as 34.3 µM (≈ 12.5 µg/mL).
In the case of `O=C(/C=C/c1cccc(Cl)c1)c1ccc([N+](=O)[O-])cc1`, the “-logMIC” value is reported as 4.362 and the MIC stood at 43.5 µM (≈ 12.5 µg/mL).
The matching figures for `CN(C)c1ccc(/C=C/C(=O)c2ccc([N+](=O)[O-])cc2)cc1`: 4.074 and 84.5 µM (≈ 25 µg/mL).
The matching figures for `O=C1N=C(c2ccc([N+](=O)[O-])cc2)CC(c2cccc(Cl)c2)N1` (stereo not drawn): 4.419 and 38 µM (≈ 12.5 µg/mL).
With `O=[N+]([O-])c1ccc(C2=NNC(c3ccc(Cl)cc3Cl)C2)cc1` (stereo not drawn), the “-logMIC” value was 4.427 and the minimal inhibitory concentration (MIC) came out at 37.4 µM (≈ 12.6 µg/mL).
For `COc1cc(C2CC(c3ccc([N+](=O)[O-])cc3)=NN2)cc(OC)c1OC` (stereo not drawn), the “-logMIC” value was determined as 3.852 and the minimum inhibitory concentration (MIC) was found to be 141 µM (≈ 50.3 µg/mL).
For `COc1ccc(C2CC(c3ccc([N+](=O)[O-])cc3)=NN2)cc1OC` (stereo not drawn) the same measures were 3.813 and 154 µM (≈ 50.4 µg/mL).
For the compound `O=C(/C=C/c1ccc(F)cc1)c1ccc([N+](=O)[O-])cc1`, the “-logMIC” value came to 4.938 and the MIC is 11.6 µM (≈ 3.13 µg/mL).
Take `COc1ccc(/C=C/C(=O)c2ccc([N+](=O)[O-])cc2)cc1OC`: the MIC was over 79.9 µM.
In the case of `O=[N+]([O-])c1ccc(C2=NC(=S)NC(c3cccc(Cl)c3)C2)cc1` (stereo not drawn), the “-logMIC” value came to 4.138 and the minimal inhibitory concentration (MIC) turned out to be 72.5 µM (≈ 25.1 µg/mL).
The matching figures for `O=C1N=C(c2ccc([N+](=O)[O-])cc2)CC(c2ccc(Br)cc2)N1` (stereo not drawn): 4.474 and 33.4 µM (≈ 12.5 µg/mL).
With `O=C(/C=C/c1ccc(Cl)cc1Cl)c1ccc([N+](=O)[O-])cc1`, the “-logMIC” value was 5.315 and the MIC is 4.84 µM (≈ 1.56 µg/mL).
For the compound `O=[N+]([O-])c1ccc(C2=NOC(c3cccc(Cl)c3)C2)cc1` (stereo not drawn), the MIC was over 83.3 µM.
On to `COc1ccc(C2CC(c3ccc([N+](=O)[O-])cc3)=NC(=S)N2)cc1` (stereo not drawn), for which the “-logMIC” value is recorded as 3.531 and the MIC is 293 µM (≈ 100 µg/mL).
Turning to `COc1ccc(C2CC(c3ccc([N+](=O)[O-])cc3)=NO2)cc1OC` (stereo not drawn), the “-logMIC” value is 4.116 and the MIC came out at 76.7 µM (≈ 25.2 µg/mL).
For `O=[N+]([O-])c1ccc(C2=NC(=S)NC(c3ccc(F)cc3)C2)cc1` (stereo not drawn) the same measures were 4.418 and 38 µM (≈ 12.5 µg/mL).
The matching figures for `COc1ccc(C2CC(c3ccc([N+](=O)[O-])cc3)=NC(=S)N2)cc1OC` (stereo not drawn): 3.869 and 135 µM (≈ 50.1 µg/mL).
`CO[C@H]1/C=C/O[C@@]2(C)Oc3c(C)c(O)c4c(O)c(c(/C=N/N5CCN(C)CC5)c(O)c4c3C2=O)NC(=O)/C(C)=C\C=C\[C@H](C)[C@H](O)[C@@H](C)[C@@H](O)[C@@H](C)[C@H](OC(C)=O)[C@@H]1C` [RIFAMPIN]: the “-logMIC” value worked out at 6.924 and the MIC came out at 0.119 µM (≈ 0.0979 µg/mL).
With `O=[N+]([O-])c1ccc(C2=NOC(c3ccc(F)cc3)C2)cc1` (stereo not drawn), the “-logMIC” value was found to be 4.357 and the MIC amounted to 44 µM (≈ 12.6 µg/mL).
In the case of `COc1ccc(/C=C/C(=O)c2ccc([N+](=O)[O-])cc2)cc1`, the MIC is over 88.3 µM.
With `COc1ccc(OC)c(C2CC(c3ccc([N+](=O)[O-])cc3)=NN2)c1` (stereo not drawn), the “-logMIC” value came to 3.813 and the MIC is 154 µM (≈ 50.4 µg/mL).
For `O=C1N=C(c2ccc([N+](=O)[O-])cc2)CC(c2ccc(Cl)cc2)N1` (stereo not drawn) the same measures were 4.419 and 38 µM (≈ 12.5 µg/mL).
`CN(C)c1ccc(C2CC(c3ccc([N+](=O)[O-])cc3)=NN2)cc1` (stereo not drawn): the “-logMIC” value is listed as 3.489 and the MIC stood at 323 µM (≈ 100 µg/mL).
Turning to `CC[C@@H](CO)NCCN[C@@H](CC)CO` [ETHAMBUTOL], the “-logMIC” value was 5.117 and the MIC is 7.63 µM (≈ 1.56 µg/mL).
Take `O=[N+]([O-])c1ccc(C2=NC(=S)NC(c3ccc(Cl)cc3Cl)C2)cc1` (stereo not drawn): the “-logMIC” value is 4.481 and the MIC came to 32.9 µM (≈ 12.5 µg/mL).
With `COc1cccc(C2CC(c3ccc([N+](=O)[O-])cc3)=NC(=S)N2)c1` (stereo not drawn), the “-logMIC” value is 3.531 and the MIC amounted to 293 µM (≈ 100 µg/mL).
Regarding `O=[N+]([O-])c1ccc(C2=NC(=S)NC(c3ccc(Br)cc3)C2)cc1` (stereo not drawn), the “-logMIC” value is given as 4.492 and the MIC turned out to be 32 µM (≈ 12.5 µg/mL).
`COc1ccc(C2CC(c3ccc([N+](=O)[O-])cc3)=NC(=O)N2)cc1` (stereo not drawn): the “-logMIC” value came to 3.811 and the minimum inhibitory concentration (MIC) was 154 µM (≈ 50.1 µg/mL).
For `O=[N+]([O-])c1ccc(C2=NNC(c3cccc(Cl)c3)C2)cc1` (stereo not drawn) the same measures were 4.079 and 83.6 µM (≈ 25.2 µg/mL).
Take `O=[N+]([O-])c1ccc(C2=NOC(c3ccc(Cl)cc3Cl)C2)cc1` (stereo not drawn): the “-logMIC” value came to 4.428 and the minimum inhibitory concentration (MIC) was 37.3 µM (≈ 12.6 µg/mL).
`COc1ccc(C2CC(c3ccc([N+](=O)[O-])cc3)=NC(=O)N2)cc1OC` (stereo not drawn): the “-logMIC” value was found to be 3.548 and the MIC was 282 µM (≈ 100 µg/mL).
Regarding `O=[N+]([O-])c1ccc(C2=NC(=S)NC(c3ccc(Cl)cc3)C2)cc1` (stereo not drawn), the “-logMIC” value is on record as 4.439 and the MIC is 36.2 µM (≈ 12.5 µg/mL).
For `O=C(/C=C/c1ccc(Cl)cc1)c1ccc([N+](=O)[O-])cc1` the same measures were 4.362 and 43.5 µM (≈ 12.5 µg/mL).
The matching figures for `COc1cccc(C2CC(c3ccc([N+](=O)[O-])cc3)=NN2)c1` (stereo not drawn): 3.47 and 339 µM (≈ 101 µg/mL).
Turning to `COc1ccc(OC)c(/C=C/C(=O)c2ccc([N+](=O)[O-])cc2)c1`, the “-logMIC” value stood at 4.098 and the MIC turned out to be 79.9 µM (≈ 25 µg/mL).
As for `COc1cc(C2CC(c3ccc([N+](=O)[O-])cc3)=NC(=S)N2)cc(OC)c1OC` (stereo not drawn), the “-logMIC” value turned out to be 3.601 and the MIC came out at 249 µM (≈ 100 µg/mL).
Regarding `NNC(=O)c1ccncc1` [ISONIAZID], the “-logMIC” value is recorded as 6.447 and the MIC was 0.357 µM (≈ 0.049 µg/mL).
For the compound `COc1cccc(C2CC(c3ccc([N+](=O)[O-])cc3)=NO2)c1` (stereo not drawn), the MIC is over 169 µM.
